Experimental data from patent publication US8658604B2, “Template-fixed beta-hairpin peptidomimetics with protease inhibitory activity” (Polyphor Ltd, priority 2005, dated 2014).
Where a SMILES comes first, the peptide text is derived from it.

Legend:
[1] = target: T1, CathepsinG, from human neutrophils (Homo sapiens, UniProt P08311); assay: Enzymatic assay, cathepsin G; conditions: Cathepsin G IC50
T1 sequence (P08311 21-244): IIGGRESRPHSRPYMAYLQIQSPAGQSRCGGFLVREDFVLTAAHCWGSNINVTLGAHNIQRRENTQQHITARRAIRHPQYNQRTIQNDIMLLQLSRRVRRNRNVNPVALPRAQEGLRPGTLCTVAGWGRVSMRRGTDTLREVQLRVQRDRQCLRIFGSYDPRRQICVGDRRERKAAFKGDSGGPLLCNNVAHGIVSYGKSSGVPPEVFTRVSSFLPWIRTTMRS

[2] = target: Trypsin, from human pancreas (Homo sapiens, UniProt P07477); assay: Enzymatic assay, trypsin
[3] = target: Tryptase, from human lung; assay: Enzymatic assay, tryptase; conditions: read-out: Tryptase IC50

CC[C@H](C)[C@@H]1NC(=O)[C@@H]2CCCN2C(=O)[C@H]2CCCN2C(=O)[C@H](CCCNC(=N)N)NC(=O)[C@@H]2CSSC[C@H](NC1=O)C(=O)N[C@@H]([C@@H](C)O)C(=O)N[C@@H](CCCCN)C(=O)N[C@@H](CO)C(=O)N[C@@H](CCc1ccccc1)C(=O)N1CCC[C@H]1C(=O)N1CCC[C@H]1C(=O)N[C@@H]([C@@H](C)CC)C(=O)N2 [Ex. 181] (HELM PEPTIDE1{I.C.T.K.S.[O=C([C@H](CCc1ccccc1)N[*:1])[*:2]].P.P.I.C.R.[dP].P}$PEPTIDE1,PEPTIDE1,2:R3-10:R3|PEPTIDE1,PEPTIDE1,1:R1-13:R2$$$V2.0)
IC50 [1]: 127 nM | IC50 [2]: 113 nM | IC50 [3]: 40 nM

CC[C@H](C)[C@@H]1NC(=O)[C@@H]2CCCN2C(=O)[C@H]2CCCN2C(=O)[C@H](CCCNC(=N)N)NC(=O)[C@@H]2CSSC[C@H](NC1=O)C(=O)N[C@@H]([C@@H](C)O)C(=O)N[C@@H](CCCCN)C(=O)N[C@@H](CO)C(=O)N[C@@H](CC1CCCCC1)C(=O)N1CCC[C@H]1C(=O)N1CCC[C@H]1C(=O)N[C@@H]([C@@H](C)CC)C(=O)N2 [Ex. 182] (HELM PEPTIDE1{I.C.T.K.S.[Cha].P.P.I.C.R.[dP].P}$PEPTIDE1,PEPTIDE1,2:R3-10:R3|PEPTIDE1,PEPTIDE1,1:R1-13:R2$$$V2.0)
IC50 [1]: 111 nM | IC50 [2]: 59 nM | IC50 [3]: 39 nM

CC[C@H](C)[C@@H]1NC(=O)[C@@H]2CCCN2C(=O)[C@H]2CCCN2C(=O)[C@H](CCCNC(=N)N)NC(=O)[C@@H]2CSSC[C@H](NC1=O)C(=O)N[C@@H]([C@@H](C)O)C(=O)N[C@@H](CCCCN)C(=O)N[C@@H](CO)C(=O)N[C@@H](Cc1ccc(O)cc1)C(=O)N1CCC[C@H]1C(=O)N1CCC[C@H]1C(=O)N[C@@H]([C@@H](C)CC)C(=O)N2 [Ex. 183] (HELM PEPTIDE1{I.C.T.K.S.Y.P.P.I.C.R.[dP].P}$PEPTIDE1,PEPTIDE1,2:R3-10:R3|PEPTIDE1,PEPTIDE1,1:R1-13:R2$$$V2.0)
IC50 [1]: 243 nM | IC50 [2]: 146 nM | IC50 [3]: 25 nM

CC[C@H](C)[C@@H]1NC(=O)[C@@H]2CCCN2C(=O)[C@@H]2CCCN2C(=O)[C@H](CC(C)C)NC(=O)[C@H](CO)NC(=O)[C@H](CCCCN)NC(=O)[C@H]([C@@H](C)O)NC(=O)[C@@H]2CSSC[C@H](NC1=O)C(=O)N[C@@H](CCCNC(=N)N)C(=O)N1CCC[C@@H]1C(=O)N1CCC[C@H]1C(=O)N[C@@H](Cc1ccccc1)C(=O)N2 [Ex. 184] (HELM PEPTIDE1{F.C.T.K.S.L.P.P.I.C.R.[dP].P}$PEPTIDE1,PEPTIDE1,2:R3-10:R3|PEPTIDE1,PEPTIDE1,1:R1-13:R2$$$V2.0)
IC50 [1]: 221 nM | IC50 [2]: 48 nM | IC50 [3]: 27 nM

CC[C@H](C)[C@@H]1NC(=O)[C@@H]2CCCN2C(=O)[C@H]2CCCN2C(=O)[C@H](CCCNC(=N)N)NC(=O)[C@@H]2CSSC[C@H](NC1=O)C(=O)N[C@@H]([C@@H](C)O)C(=O)N[C@@H](CCCCN)C(=O)N[C@@H](CO)C(=O)N[C@@H](CC(C)C)C(=O)N1CCC[C@H]1C(=O)N1CCC[C@H]1C(=O)N[C@@H](CCCNC(=N)N)C(=O)N2 [Ex. 185] (HELM PEPTIDE1{I.C.T.K.S.L.P.P.R.C.R.[dP].P}$PEPTIDE1,PEPTIDE1,2:R3-10:R3|PEPTIDE1,PEPTIDE1,1:R1-13:R2$$$V2.0)
IC50 [1]: 514 nM | IC50 [2]: 126 nM | IC50 [3]: 14 nM

CC[C@H](C)[C@@H]1NC(=O)[C@@H]2CCCN2C(=O)[C@H]2CCCN2C(=O)[C@H](CCCNC(=N)N)NC(=O)[C@@H]2CSSC[C@H](NC1=O)C(=O)N[C@@H]([C@@H](C)O)C(=O)N[C@@H](CCCCN)C(=O)N[C@@H](CO)C(=O)N[C@@H](CC(C)C)C(=O)N1CCC[C@H]1C(=O)N1CCC[C@H]1C(=O)N[C@@H](CCCCN)C(=O)N2 [Ex. 186] (HELM PEPTIDE1{I.C.T.K.S.L.P.P.K.C.R.[dP].P}$PEPTIDE1,PEPTIDE1,2:R3-10:R3|PEPTIDE1,PEPTIDE1,1:R1-13:R2$$$V2.0)
IC50 [1]: 337 nM | IC50 [2]: 99 nM | IC50 [3]: 15 nM

CC[C@H](C)[C@@H]1NC(=O)[C@@H]2CCCN2C(=O)[C@H]2CCCN2C(=O)[C@H](CCCNC(=N)N)NC(=O)[C@@H]2CSSC[C@H](NC1=O)C(=O)N[C@@H]([C@@H](C)O)C(=O)N[C@@H](CCCCN)C(=O)N[C@@H](CO)C(=O)N[C@@H](CC(C)C)C(=O)N1CCC[C@H]1C(=O)N1CCC[C@H]1C(=O)N[C@@H](Cc1c[nH]cn1)C(=O)N2 [Ex. 187] (HELM PEPTIDE1{I.C.T.K.S.L.P.P.H.C.R.[dP].P}$PEPTIDE1,PEPTIDE1,2:R3-10:R3|PEPTIDE1,PEPTIDE1,1:R1-13:R2$$$V2.0)
IC50 [1]: 158 nM | IC50 [2]: 39 nM | IC50 [3]: < 100 nM

CC[C@H](C)[C@@H]1NC(=O)[C@@H]2CCCN2C(=O)[C@H]2CCCN2C(=O)[C@H](CCCNC(=N)N)NC(=O)[C@@H]2CSSC[C@H](NC1=O)C(=O)N[C@@H]([C@@H](C)O)C(=O)N[C@@H](CCCCN)C(=O)N[C@@H](CO)C(=O)N[C@@H](CC(C)C)C(=O)N1CCC[C@H]1C(=O)N1CCC[C@H]1C(=O)N[C@@H](CCC(N)=O)C(=O)N2 [Ex. 188] (HELM PEPTIDE1{I.C.T.K.S.L.P.P.Q.C.R.[dP].P}$PEPTIDE1,PEPTIDE1,2:R3-10:R3|PEPTIDE1,PEPTIDE1,1:R1-13:R2$$$V2.0)
IC50 [1]: 105 nM | IC50 [2]: 34 nM | IC50 [3]: < 100 nM

CC[C@H](C)[C@@H]1NC(=O)[C@@H]2CCCN2C(=O)[C@H]2CCCN2C(=O)[C@H](CCCNC(=N)N)NC(=O)[C@@H]2CSSC[C@H](NC1=O)C(=O)N[C@@H]([C@@H](C)O)C(=O)N[C@@H](CCCCN)C(=O)N[C@@H](CO)C(=O)N[C@@H](CC(C)C)C(=O)N1CCC[C@H]1C(=O)N1CCC[C@H]1C(=O)N[C@@H]([C@@H](C)O)C(=O)N2 [Ex. 189] (HELM PEPTIDE1{I.C.T.K.S.L.P.P.T.C.R.[dP].P}$PEPTIDE1,PEPTIDE1,2:R3-10:R3|PEPTIDE1,PEPTIDE1,1:R1-13:R2$$$V2.0)
IC50 [1]: 164 nM | IC50 [2]: 39 nM | IC50 [3]: < 100 nM

CC[C@H](C)[C@@H]1NC(=O)[C@@H]2CCCN2C(=O)[C@H]2CCCN2C(=O)[C@H](CCCCN)NC(=O)[C@@H]2CSSC[C@H](NC1=O)C(=O)N[C@@H]([C@@H](C)O)C(=O)N[C@@H](CCCCN)C(=O)N[C@@H](CO)C(=O)N[C@@H](CC(C)C)C(=O)N1CCC[C@H]1C(=O)N1CCC[C@H]1C(=O)N[C@@H](CCCNC(=N)N)C(=O)N2 [Ex. 190] (HELM PEPTIDE1{I.C.T.K.S.L.P.P.R.C.K.[dP].P}$PEPTIDE1,PEPTIDE1,2:R3-10:R3|PEPTIDE1,PEPTIDE1,1:R1-13:R2$$$V2.0)
IC50 [1]: 1500 nM | IC50 [2]: 172 nM | IC50 [3]: < 100 nM

CC(C)C[C@@H]1NC(=O)[C@@H]2CCCN2C(=O)[C@H]2CCCN2C(=O)[C@H](CCCNC(=N)N)NC(=O)[C@@H]2CSSC[C@H](NC1=O)C(=O)N[C@@H]([C@@H](C)O)C(=O)N[C@@H](CCCCN)C(=O)N[C@@H](CO)C(=O)N[C@@H](CC(C)C)C(=O)N1CCC[C@H]1C(=O)N1CCC[C@H]1C(=O)N[C@@H](CCCCN)C(=O)N2 [Ex. 191] (HELM PEPTIDE1{L.C.T.K.S.L.P.P.K.C.R.[dP].P}$PEPTIDE1,PEPTIDE1,2:R3-10:R3|PEPTIDE1,PEPTIDE1,1:R1-13:R2$$$V2.0)
IC50 [1]: 400 nM | IC50 [2]: 66 nM | IC50 [3]: 21 nM

CCCC[C@@H]1NC(=O)[C@@H]2CCCN2C(=O)[C@H]2CCCN2C(=O)[C@H](CCCNC(=N)N)NC(=O)[C@@H]2CSSC[C@H](NC1=O)C(=O)N[C@@H]([C@@H](C)O)C(=O)N[C@@H](CCCCN)C(=O)N[C@@H](CO)C(=O)N[C@@H](CC(C)C)C(=O)N1CCC[C@H]1C(=O)N1CCC[C@H]1C(=O)N[C@@H](CCCCN)C(=O)N2 [Ex. 192] (HELM PEPTIDE1{[Nle].C.T.K.S.L.P.P.K.C.R.[dP].P}$PEPTIDE1,PEPTIDE1,2:R3-10:R3|PEPTIDE1,PEPTIDE1,1:R1-13:R2$$$V2.0)
IC50 [1]: 650 nM | IC50 [2]: 72 nM | IC50 [3]: 16 nM

CC(C)C[C@@H]1NC(=O)[C@H](CO)NC(=O)[C@H](CCCCN)NC(=O)[C@H]([C@@H](C)O)NC(=O)[C@@H]2CSSC[C@H](NC(=O)[C@H](CCCCN)NC(=O)[C@@H]3CCCN3C(=O)[C@@H]3CCCN3C1=O)C(=O)N[C@@H](CCCNC(=N)N)C(=O)N1CCC[C@@H]1C(=O)N1CCC[C@H]1C(=O)N[C@@H](CC1CCCCC1)C(=O)N2 [Ex. 193] (HELM PEPTIDE1{[Cha].C.T.K.S.L.P.P.K.C.R.[dP].P}$PEPTIDE1,PEPTIDE1,2:R3-10:R3|PEPTIDE1,PEPTIDE1,1:R1-13:R2$$$V2.0)
IC50 [1]: 431 nM | IC50 [2]: 35 nM | IC50 [3]: 6 nM

CC(C)C[C@@H]1NC(=O)[C@H](CO)NC(=O)[C@H](CCCCN)NC(=O)[C@H]([C@@H](C)O)NC(=O)[C@@H]2CSSC[C@H](NC(=O)[C@H](CCCCN)NC(=O)[C@@H]3CCCN3C(=O)[C@@H]3CCCN3C1=O)C(=O)N[C@@H](CCCNC(=N)N)C(=O)N1CCC[C@@H]1C(=O)N1CCC[C@H]1C(=O)N[C@@H](Cc1ccc(O)cc1)C(=O)N2 [Ex. 194] (HELM PEPTIDE1{Y.C.T.K.S.L.P.P.K.C.R.[dP].P}$PEPTIDE1,PEPTIDE1,2:R3-10:R3|PEPTIDE1,PEPTIDE1,1:R1-13:R2$$$V2.0)
IC50 [1]: 1570 nM | IC50 [2]: 431 nM | IC50 [3]: 9 nM

CC(C)C[C@@H]1NC(=O)[C@H](CO)NC(=O)[C@H](CCCCN)NC(=O)[C@H]([C@@H](C)O)NC(=O)[C@@H]2CSSC[C@H](NC(=O)[C@H](CCCCN)NC(=O)[C@@H]3CCCN3C(=O)[C@@H]3CCCN3C1=O)C(=O)N[C@@H](CCCNC(=N)N)C(=O)N1CCC[C@@H]1C(=O)N1CCC[C@H]1C(=O)N[C@@H](Cc1c[nH]c3ccccc13)C(=O)N2 [Ex. 195] (HELM PEPTIDE1{W.C.T.K.S.L.P.P.K.C.R.[dP].P}$PEPTIDE1,PEPTIDE1,2:R3-10:R3|PEPTIDE1,PEPTIDE1,1:R1-13:R2$$$V2.0)
IC50 [1]: 4000 nM | IC50 [2]: 108 nM | IC50 [3]: 12 nM
